# Test results published in patent publication US5128345A, “Carcinostatic composition comprising indolquinolines” (Mect Corporation, priority 1988, dated 1992).
# Assays:
# [1] = J. Med. Chem., vol. 17, 922 (1974); among acridines with the 9-position alkylamino group replaced; cited from earlier work
# [2] = system: KB cells; assay: Test for inhibiting multiplication/growth of KB cells (in vitro); assay type: cell-based, Human; details: compound added Day 1, cells counted Day 4, 37° C., 5% CO2, 50% inhibition rate, 4320 min
# Protocol: 1) Function for Inhibiting Multiplication of KB-1 Cell (in vitro test)
# KB cells, carcinomatous cell tumors, were transferred to in vitro floatation incubator systems, and added respectively with the Compounds (1), (2) and (3). The results of cultivation added with the Compounds (1), (2) and (3) were compared with the result of the control which was not added with any compound.
# Cell used: KB Cell (Originating from Human Mouth Epidermal Cancer),
# Culture medium: Eagles Minimal Essential Medium supplemented with 10% Calf Serum,
# Cultivation: 37° C. Carbon dioxide Gas incubator (5% CO2).
# KB cells were diluted in the culture medium to adjust the KB cell density to 2 x 10^4 /ml.
# Three ml of the cell suspension was inoculated in each of 60 mm plastic dishes.
# Two dishes per standard dosage were used.
# Test compound was added to the medium so that the final concentrations were set to 100, 30, 10, 3 and 1 μg/ml.
# Cells were scraped off from the dish using trypsin, and the cell number was countered using a Corter counter.
# In general accordance with the stipulations set forth by the National Cancer Institute (NCI), U.S.A., the concentration of compound necessary for exerting 50% growth inhibition (ED50) compared to the control was determined.
# [3] = system: P-388; assay: Prolongation of life span in P-388 cancer implanted mouse (in vivo); design: species or system CDF Mouse; details: Day 1 and Day 5, P-388 inoculated i.p., 10^6 cells/mouse
# Protocol: Effect on Prolongation of Life Span in Cancer implanted Mouse and Acute Toxicity
# Pharmacological effects of the compounds as used in Test Example 1 were tested in vivo using P-388 implanted mice.
# Animal Used: CDF Mouse (6 mice/group),
# Number of Inowlated Cells: 10^6 cells/mouse,
# Day of Administration: Day 1 and Day 5,
# Dosage: LD50 or 400 mg/kg/day at the maximum.
# The treatment was judged as effective when the ratio of survival of the treated group to that of the control group (T/C %) was 120% or more. The survival period of the control group was generally about 10 days.
SMILES,ED50: concentration of compound necessary for exerting 50% growth inhibition compared to the control (Concentration at Inhibition Rate 50%) [2],Ratio of Life Prolongation (T/C %) ([3]; 100 mg/kg),Ratio of Life Prolongation (T/C %) ([3]; 200 mg/kg),further results
"COc1cc(NS(C)(=O)=O)ccc1Nc1c2ccccc2nc2ccccc12 [Amsacrine, N-(4-(9-acridylamino)-3-methoxyphenyl)methanesulfonamide]",–,–,–,carcinostatic function [1]: highest carcinostatiac function
COc1cc(NS(C)(=O)=O)ccc1Nc1c2ccccc2nc2c1[nH]c1ccccc12 [Compound 1],0.3 µg/mL,–,–,Ratio of Life Prolongation (T/C %) ([3]; 6.25 mg/kg): 300%; Ratio of Life Prolongation (T/C %) ([3]; 12.5 mg/kg): 203%; Ratio of Life Prolongation (T/C %) ([3]; 25 mg/kg): 111%
COc1cc(NS(C)(=O)=O)ccc1Nc1c2ccccc2nc2c1ccc1ccccc12 [Compound 3],–,163%,204%,Ratio of Life Prolongation (T/C %) ([3]; 50 mg/kg): 157%
"COc1cc(NS(C)(=O)=O)ccc1Nc1c2ccccc2nc2cc3ccccc3cc12 [Compound 2, N-(4-((benzo(b)acridine-12yl)amino)-3-methoxyphenyl)methanesulfonamide]",1.15 µg/mL,122%,130%,Ratio of Life Prolongation (T/C %) ([3]; 400 mg/kg): 130%
